According to patent publication US6759236B1, “Methods to enhance and confine expression of genes” (Research Development Foundation, priority 1998, dated 2004):

Tests used:
[1] = cited from earlier work
[2] = tested on: H358 lung carcinoma cell line; experiment: Heat inducible, tetracycline feed-forward amplification of p53 expression (p53 immunostaining); type: cell-based; conditions: 0.1 μg/ml added 6 hours after heating (45° C., 20 min); reached in 10 hours; cells cotransfected with ptet-splice p53 wt and HSP-tetp-TET-ON
Method: Six hours after heat shock, transfected cells were treated with different doses of doxycycline. At various time points after the addition of doxycycline, the cells were stained with a p53 antibody. For each point, the digital images of fifty immunostained cells were captured using a Nikon microscope. […] The plasmid “HSP-tetp-TET-ON” was constructed by replacing the CMV promoter in ptet-on (Clontech) with 300 bp of the human heat shock protein promoter and the tetp promoter. H358, a non-small cell lung carcinoma cell line with a homozygous deletion of p53, was grown in RPMI+10% fetal calf serum. 10^7 exponentially growing cells were cotransfected with 50 μg of “ptet-splice p53 wt” and 10 μg of “HSP-tetp-TET-ON” by electroporation using a BRL cell-Porator at 1180 μF and 240 V in 0.8 ml RPMI+6 mM glucose. Transfected cells were plated out at 25% confluence for 36 hours and then half of them were heat-shocked at 45° C. for twenty minutes. Six hours after heat shock, cells were treated with different doses of doxycycline. […] The amount of protein expressed in each cell is proportional to the intensity of staining which was expressed as I=1/T, where T is a measure of the transmitted light/unit area.

| Compound | in vivo half-life ([1]; in vivo) [h] | amplification of p53 [2] | level at the end of 24 hours ([1]; end of 24 hours) | time at which peak plasma concentration is reached ([1]; humans, single oral dose) [h] | fraction removed via the kidney ([1]; humans) | fraction never absorbed and excreted in the active form ([1]; in vivo) |
| --- | --- | --- | --- | --- | --- | --- |
| C[C@H]1c2cccc(O)c2C(=O)C2=C(O)[C@]3(O)C(=O)C(C(N)=O)=C(O)[C@@H](N(C)C)[C@@H]3[C@@H](O)[C@@H]21 [doxycycline] | 18 | more than 12 fold |  |  |  |  |
| CN(C)[C@@H]1C(O)=C(C(N)=O)C(=O)[C@@]2(O)C(O)=C3C(=O)c4c(O)cccc4[C@@](C)(O)[C@H]3[C@H](O)[C@@H]12 [oxytetracycline] | 9 |  | < 25 % of input | 2 to 4 | 10-35% | 10-30% |
